According to ChEMBL document CHEMBL5143634, “Design, synthesis, and anti-influenza A virus activity evaluation of novel indole containing derivatives of triazole” (Bioorg Med Chem Lett, 2022):

What was measured:
[1] = Selectivity index, ratio of CC50 for human HEK293T cells to IC50 for antiviral activity against Influenza A virus A/WSN/33 (H1N1) infected in HEK293T cells; type: toxicity, cell-based; conditions: read-out: Ratio CC50/IC50
[2] = system: Influenza A virus; test: Antiviral activity against Influenza A virus A/WSN/33 (H1N1) infected in HEK293T cells at 10 uM by Gaussia luciferase reporter assay; type: functional; conditions: HEK-293T
[3] = system: Influenza A virus; test: Antiviral activity against Influenza A virus A/WSN/33 (H1N1) infected in HEK293T cells by Gaussia luciferase reporter assay; type: functional, organism-based; conditions: HEK-293T
[4] = Cytotoxicity against human HEK293T cells assessed as cell viability after 48 hrs by CCK-8 assay; type: toxicity, cell-based, HEK-293T

SMILES	selectivity ratio [1]	inhibition at 10 µM [2] [%]	IC50 [3] [µM]	CC50 at 48 h [4] [µM]
Cn1cc(SCc2nnc(SCc3ccccc3OC(F)(F)F)n2-c2c(Cl)cccc2Cl)c2ccccc21	> 70.9	> 50	1.41	> 100
Cn1cc(SCc2nnc(SCc3cc(C(F)(F)F)ccc3Cl)n2-c2c(Cl)cccc2Cl)c2ccccc21	10.6	> 50	5.1	53.8
Cn1cc(SCc2nnc(SCc3ccccc3Cl)n2-c2c(Cl)cccc2Cl)c2ccccc21	6.65	> 50	7.46	49.6
Cn1cc(SCc2nnc(SCc3ccc(Cl)cc3C(F)(F)F)n2-c2c(Cl)cccc2Cl)c2ccccc21	21.8	> 50	2.59	56.5
Cn1cc(SCc2nnc(SCc3ccc(OC(F)(F)F)c(Cl)c3)n2-c2c(Cl)cccc2Cl)c2ccccc21	10.4	> 50	7.49	77.7
Cn1cc(SCc2nnc(SCc3cccc(Cl)c3Cl)n2-c2c(Cl)cccc2Cl)c2ccccc21	> 46.7	> 50	2.14	> 100
NC(=O)c1ncn([C@@H]2O[C@H](CO)[C@@H](O)[C@H]2O)n1 [RIBAVIRIN]	–	–	27.8	> 100
Cn1cc(SCc2nnc(SCc3c(F)cccc3Cl)n2-c2c(Cl)cccc2Cl)c2ccccc21	> 25.4	> 50	3.94	> 100
Cn1cc(SCc2nnc(SCc3ccccc3C#N)n2-c2c(Cl)cccc2Cl)c2ccccc21	24.7	> 50	3.18	78.6
Cn1cc(SCc2nnc(S)n2-c2c(Cl)cccc2Cl)c2ccccc21	> 67.6	> 50	1.48	> 100
Cn1cc(SCc2nnc(SCc3cc(Cl)ccc3F)n2-c2c(Cl)cccc2Cl)c2ccccc21	> 35.3	> 50	2.83	> 100
Cn1cc(SCc2nnc(SCc3ccc(Cl)cc3Cl)n2-c2c(Cl)cccc2Cl)c2ccccc21	> 16.2	> 50	6.19	> 100
Cn1cc(SCc2nnc(SCc3ccc(Cl)cc3F)n2-c2c(Cl)cccc2Cl)c2ccccc21	7.67	> 50	11.5	87.3
Cn1cc(SCc2nnc(SCc3cc(Cl)ccc3Cl)n2-c2c(Cl)cccc2Cl)c2ccccc21	> 19.5	> 50	5.12	> 100
Cn1cc(SCc2nnc(SCc3ccc(Cl)c(F)c3)n2-c2c(Cl)cccc2Cl)c2ccccc21	> 14	> 50	7.12	> 100
Cn1cc(SCc2nnc(SCc3ccccc3)n2-c2c(Cl)cccc2Cl)c2ccccc21	> 74.6	> 50	1.34	> 100
CCOC(=O)c1c(CSc2nnc(CSc3cn(C)c4ccccc34)n2-c2c(Cl)cccc2Cl)n(C)c2cc(Br)c(OC(C)=O)cc12	> 44	> 50	2.27	> 100
Cn1cc(SCc2nnc(SCc3cccc(Cl)c3F)n2-c2c(Cl)cccc2Cl)c2ccccc21	> 23.8	> 50	4.21	> 100
Cn1cc(SCc2nnc(SCc3c(Cl)cccc3Cl)n2-c2c(Cl)cccc2Cl)c2ccccc21	> 11	> 50	9.1	> 100
